Measurements from patent publication US7635664B2, “Herbicidal substituted benzoylpyrazoles” (Bayer CropScience AG, priority 2001, dated 2009).

system: not listed separately; assay: logP determination by HPLC on reversed-phase column, acidic range; format: physicochemical; conditions: HPLC reversed-phase column (C 18), 43° C., acidic range: 0.1% aqueous phosphoric acid, acetonitrile; marked a)
Description: (a) Mobile phases for the determination in the acidic range: 0.1% aqueous phosphoric acid, acetonitrile; linear gradient from 10% acetonitrile to 90% acetonitrile—the corresponding measurement results in Table 1 are marked ^a).

Row | logP | Compound
1 | (I-2) logP = 1.31^a) | CCn1nc(C)c(C(=O)c2ccc(Cl)c(NC(=O)N3CCCO3)c2Cl)c1O [Example 186]
2 | (I-2) logP = 1.10^a) | Cc1nn(C)c(O)c1C(=O)c1ccc(Cl)c(NC(=O)N2CCCO2)c1Cl [Example 185]

same assay, conditions: marked a): acidic range, 0.1% aqueous phosphoric acid, acetonitrile gradient, 43° C.

Row | Compound | logP a)
3 | COC(=O)c1ccc(Cl)c(NC(=O)NN(C)C)c1Cl [IIIa-7] | logP = 1.64^a)
4 | COC(=O)c1ccc(Cl)c(NC(=O)N2CCN(C)CC2)c1Cl [IIIa-8] | logP = 0.50^a)
5 | COC(=O)c1ccc(Cl)c(NC(=O)N2CCOCC2)c1Cl [IIIa-6] | logP = 1.34^a)
6 | COC(=O)c1ccc(C(F)(F)F)cc1NC(=O)N(C)OC [IIIa-9] | logP = 3.35^a)
7 | COC(=O)c1ccc(C(F)(F)F)cc1NC(=O)N1CCN(C)C1=O [IIIa-10] | logP = 2.76^a)

same assay, conditions: marked a): acidic range, 0.1% aqueous phosphoric acid/acetonitrile gradient, reversed-phase C 18 HPLC, 43° C.

Row | logP | Compound
8 | (I-2) logP = 1.83^a) | CCN1CCCN(C(=O)Nc2c(Cl)ccc(C(=O)c3cnn(C)c3O)c2Cl)C1=O [Example 19]
9 | (I-2) logP = 1.11^a) | Cn1ncc(C(=O)c2ccc(Cl)c(NC(=O)N3CCCO3)c2Cl)c1O [Example 161]
10 | (I-2) logP = 2.42^a) | CCn1ncc(C(=O)c2ccc(Cl)c(NC(=O)N3CCCN(C(C)C)C3=O)c2Cl)c1O [Example 101]
11 | (I-2) logP = 1.06^a) | CCn1ncc(C(=O)c2ccc(Cl)c(NC(=O)NOC)c2Cl)c1O [Example 108]
12 | (I-2) logP = 1.86^a) | CCN1CCN(C(=O)Nc2c(Cl)ccc(C(=O)c3cnn(CC)c3O)c2Cl)C1=O [Example 13]
13 | (I-2) logP = 1.25^a) | CCn1ncc(C(=O)c2ccc(Cl)c(NC(=O)NN3CCOCC3)c2Cl)c1O [Example 14]
14 | (I-2) logP = 2.24^a) | CCn1ncc(C(=O)c2ccc(Cl)c(NC(=O)Nc3nnc(C(F)(F)F)s3)c2Cl)c1O [Example 175]
15 | (I-1) logP = 1.78^a) | CCn1ncc(C(=O)c2ccc(C(F)(F)F)cc2N(C)C(=O)N2CCN(C)C2=O)c1O [Example 103]
16 | (I-2) logP = 1.45^a) | CCn1ncc(C(=O)c2ccc(Cl)c(NC(=O)C3=NOCC3)c2Cl)c1O [Example 148]
17 | (I-2) logP = 1.63^a) | CCN1CCN(C(=O)Nc2c(Cl)ccc(C(=O)c3cnn(C)c3O)c2Cl)C1=O [Example 12]
18 | (I-2) logP = 1.50^a) | Cn1ncc(C(=O)c2ccc(Cl)c(NC(=O)N3CCCCC3)c2Cl)c1O [Example 107]
19 | (I-2) logP = 0.82^a) | Cn1ncc(C(=O)c2ccc(Cl)c(NC(=O)N3CCOCC3)c2Cl)c1O [Example 10]
20 | (I-2) logP = 1.72^a) | CCn1ncc(C(=O)c2ccc(Cl)c(NC(=O)N=c3sccn3CC)c2Cl)c1O [Example 179]
21 | (I-2) logP = 1.34^a) | Cc1nn(C)c(O)c1C(=O)c1ccc(Cl)c(NC(=O)N2CCCCO2)c1Cl [Example 184]
22 | (I-1) logP = 2.42^a) | CCn1ncc(C(=O)c2ccc(C(F)(F)F)cc2NC(=O)N2CCN(C)C2=O)c1O [Example 11]
23 | (I-2) logP = 1.42^a) | CCn1ncc(C(=O)c2ccc(Cl)c(NC(=O)NN3CCCC3)c2Cl)c1O [Example 100]
24 | (I-2) logP = 1.13^a) | CON(C)C(=O)Nc1c(Cl)ccc(C(=O)c2cnn(C)c2O)c1Cl [Example 3]
25 | (I-2) logP = 1.32^a) | CN1CCN(C(=O)Nc2c(Cl)ccc(C(=O)c3cnn(C)c3O)c2Cl)C1=O [Example 4]
26 | (I-2) logP = 1.18^a) | Cn1ncc(C(=O)c2ccc(Cl)c(NC(=O)C3=NOCC3)c2Cl)c1O [Example 149]
27 | (I-2) logP = 1.38^a) | CCn1ncc(C(=O)c2ccc(Cl)c(NC(=O)N3CCCO3)c2Cl)c1O [Example 162]
28 | (I-1) logP = 2.12^a) | CN1CCN(C(=O)Nc2cc(C(F)(F)F)ccc2C(=O)c2cnn(C)c2O)C1=O [Example 17]
29 | (I-2) logP = 1.10^a) | Cn1ncc(C(=O)c2ccc(Cl)c(NC(=O)NCC3CCCO3)c2Cl)c1O (stereo not shown) [Example 41]
30 | (I-2) logP = 1.36^a) | Cn1ncc(C(=O)c2ccc(Cl)c(NC(=O)N3CCCCO3)c2Cl)c1O [Example 182]
31 | (I-2) logP = 2.11^a) | CC(C)N1CCCN(C(=O)Nc2c(Cl)ccc(C(=O)c3cnn(C)c3O)c2Cl)C1=O [Example 33]
32 | (I-2) logP = 1.18^a) | Cn1ncc(C(=O)c2ccc(Cl)c(NC(=O)N3CCCC3)c2Cl)c1O [Example 24]
33 | (I-2) logP = 1.99^a) | Cn1ncc(C(=O)c2ccc(Cl)c(NC(=O)Nc3nnc(C(F)(F)F)s3)c2Cl)c1O [Example 47]
34 | (I-2) logP = 2.11^a) | CCN1CCCN(C(=O)Nc2c(Cl)ccc(C(=O)c3cnn(CC)c3O)c2Cl)C1=O [Example 18]
35 | (I-2) logP = 2.88^a) | CCn1ncc(C(=O)c2ccc(Cl)c(N(C)C(=O)N3CCN(C)C3=O)c2Cl)c1O [Example 171]

Row | logP | Compound
36 | (I-2) logP = 1.20^a) | CCn1ncc(C(=O)c2ccc(Cl)c(NC(=O)Nc3nnc(C)o3)c2Cl)c1O [Example 174]
37 | (I-2) logP = 0.72^a) | CONC(=O)Nc1c(Cl)ccc(C(=O)c2cnn(C)c2O)c1Cl [Example 109]
38 | (I-2) logP = 0.99^a) | Cn1ncc(C(=O)c2ccc(Cl)c(NC(=O)NC3CC3)c2Cl)c1O [Example 21]
39 | (I-3) logP = 1.74^a) | CCn1ncc(C(=O)c2ccc(NC(=O)N3CCN(C)C3=O)cc2OC)c1O [Example 111]
40 | (I-2) logP = 1.52^a) | CCn1ncc(C(=O)c2ccc(Cl)c(NC(=O)N3CCCC3)c2Cl)c1O [Example 110]
41 | (I-2) logP = 1.55^a) | CN1CCCN(C(=O)Nc2c(Cl)ccc(C(=O)c3cnn(C)c3O)c2Cl)C1=O [Example 9]
42 | (I-2) logP = 1.13^a) | CCn1ncc(C(=O)c2ccc(Cl)c(NC(=O)NCC(OC)OC)c2Cl)c1O [Example 180]
43 | (I-2) logP = 1.96^a) | CCn1ncc(C(=O)c2ccc(Cl)c(NC(=O)NN3CCCCC3)c2Cl)c1O [Example 172]
44 | (I-2) logP = 1.13^a) | CCn1ncc(C(=O)c2ccc(Cl)c(NC(=O)N3CCOCC3)c2Cl)c1O [Example 6]
45 | (I-2) logP = 1.33^a) | CCn1ncc(C(=O)c2ccc(Cl)c(NC(=O)NCC3CCCO3)c2Cl)c1O (stereo not shown) [Example 105]
46 | (I-2) logP = 1.40^a) | CCn1ncc(C(=O)c2ccc(Cl)c(N(C)C(=O)N3CCN(C)C3=O)c2Cl)c1O [Example 99]
47 | (I-2) logP = 1.25^a) | CCn1ncc(C(=O)c2ccc(Cl)c(NC(=O)NC3CC3)c2Cl)c1O [Example 104]
48 | (I-2) logP = 1.39^a) | CCn1ncc(C(=O)c2ccc(Cl)c(NC(=O)N=c3sccn3C)c2Cl)c1O [Example 176]
49 | (I-2) logP = 1.75^a) | CCn1ncc(C(=O)c2ccc(Cl)c(NC(=O)N3CCCCC3)c2Cl)c1O [Example 106]
50 | (I-2) logP = 1.03^a) | Cn1ncc(C(=O)c2ccc(Cl)c(NC(=O)NN3CCOCC3)c2Cl)c1O [Example 15]
51 | (I-1) logP = 2.93^a) | CCn1ncc(C(=O)c2ccc(C(F)(F)F)cc2NC(=O)N(C)OC)c1O [Example 7]
52 | (I-2) logP = 1.53^a) | CCn1nc(C)c(C(=O)c2ccc(Cl)c(NC(=O)N3CCCCO3)c2Cl)c1O [Example 183]
53 | (I-2) logP = 1.17^a) | Cn1ncc(C(=O)c2ccc(Cl)c(NC(=O)NN3CCCC3)c2Cl)c1O [Example 16]
54 | (I-2) logP = 1.70^a) | Cn1ncc(C(=O)c2ccc(Cl)c(NC(=O)NN3CCCCC3)c2Cl)c1O [Example 173]
55 | (I-2) logP = 1.43^a) | CCn1ccsc1=NC(=O)Nc1c(Cl)ccc(C(=O)c2cnn(C)c2O)c1Cl [Example 178]
56 | (I-2) logP = 1.54^a) | CCn1ncc(C(=O)c2ccc(Cl)c(NC(=O)c3ccco3)c2Cl)c1O [Example 156]
57 | (I-2) logP = 1.63^a) | CCn1ncc(C(=O)c2ccc(Cl)c(NC(=O)N3CCCCO3)c2Cl)c1O [Example 181]
58 | (I-2) logP = 1.13^a) | Cn1ncc(C(=O)c2ccc(Cl)c(NC(=O)N=c3sccn3C)c2Cl)c1O [Example 177]
59 | (I-2) logP = 3.30^a) | CCn1ncc(C(=O)c2ccc(Cl)c(NC(=O)N3CCCN(C4CCCCC4)C3=O)c2Cl)c1O [Example 102]
60 | (I-2) logP = 1.33^a) | CCONC(=O)Nc1c(Cl)ccc(C(=O)c2cnn(CC)c2O)c1Cl [Example 128]
61 | (I-1) logP = 2.50^a) | CON(C)C(=O)Nc1cc(C(F)(F)F)ccc1C(=O)c1cnn(C)c1O [Example 8]
62 | (I-2) logP = 1.07^a) | CCONC(=O)Nc1c(Cl)ccc(C(=O)c2cnn(C)c2O)c1Cl [Example 127]

same assay, conditions: reversed-phase C18 HPLC column; pH=2.3

Row | chromatographic logP | Compound
63 | 1.94 | COC(=O)c1ccc(Cl)c(NC(=O)N2CCN(C)C2=O)c1Cl [IIIa-1, methyl 2,4-dichloro-3-[[(3-methyl-2-oxo-1-imidazolidinyl)-carbonyl]-amino]-benzoate]
64 | 1.35 | CN1CCN(C(=O)Nc2c(Cl)ccc(C(=O)O)c2Cl)C1=O [III-1, 2,4-dichloro-3-[[(3-methyl-2-oxo-1-imidazolidinyl)-carbonyl]-amino]-benzoic acid]

system: weeds; assay: Pre-emergence test (Example A), weeds; format: in vivo; conditions: soil sprayed 24 hours after sowing; rated after three weeks as % damage vs untreated control
Method: To produce a suitable preparation of active compound, 1 part by weight of active compound is mixed with the stated amount of solvent, the stated amount of emulsifier is added and the concentrate is diluted with water to the desired concentration.
Seeds of the test plants are sown in normal soil. After 24 hours, the soil is sprayed with the preparation of active compound such that the particular amount of active compound desired is applied per unit area. The concentration of active compound in the spray liquor is chosen such that the particular amount of active compound desired is applied in 1000 liters of water per hectare.
After three weeks, the degree of damage to the plants is rated in % damage in comparison to the development of the untreated control. The figures denote: • 0%=no effect (like untreated control) • 100%=total destruction

Row | Compound | activity against weeds, pre-emergence
65 | CON(C)C(=O)Nc1c(Cl)ccc(C(=O)c2cnn(C)c2O)c1Cl [Example 3] | strong activity
66 | CN1CCN(C(=O)Nc2c(Cl)ccc(C(=O)c3cnn(C)c3O)c2Cl)C1=O [Example 4] | strong activity
67 | CCn1ncc(C(=O)c2ccc(Cl)c(NC(=O)N3CCOCC3)c2Cl)c1O [Example 6] | strong activity
